The term IC50 denotes the concentration needed to halve the response being measured.

Here are results for 26 compounds from US10899738B2 (THE REGENTS OF THE UNIVERSITY OF MICHIGAN, priority 2016, dated 2021).

In this experiment the target is menin protein (Homo sapiens (Human), UniProt O00255). Briefly: biochemical. The note with it: FP competitive binding, menin protein 4 nM, FAM-MM2 probe 2 nM; for IC50: read-out: Menin Binding Affinity IC50. In kind it is binding. Here is the method: A fluorescence polarization (FP) competitive binding assay was used to determine the binding affinities of representative menin inhibitors. A FAM labeled fluorescent probe was designed and synthesized based on a MLL1 peptide (FAM-MM2). Equilibrium dissociation constant (Kd) value of FAM-MM2 to menin protein was determined from protein saturation experiments by monitoring the total fluorescence polarization of mixtures composed with the fluorescent probe at a fixed concentration and the protein with increasing concentrations up to full saturation. Serial dilutions of the protein were mixed with FAM-MM2 to a final volume of 200 μl in the assay buffer (PBS with 0.02% Bovine γ-Globulin and 4% DMSO. 0.01% Triton X-100 was added right before assays). Final FAM-MM2 concentration was 2 nM. Plates were incubated at room temperature for 30 minutes with gentle shaking to assure equilibrium.
Sequence of menin protein (O00255 whole entry): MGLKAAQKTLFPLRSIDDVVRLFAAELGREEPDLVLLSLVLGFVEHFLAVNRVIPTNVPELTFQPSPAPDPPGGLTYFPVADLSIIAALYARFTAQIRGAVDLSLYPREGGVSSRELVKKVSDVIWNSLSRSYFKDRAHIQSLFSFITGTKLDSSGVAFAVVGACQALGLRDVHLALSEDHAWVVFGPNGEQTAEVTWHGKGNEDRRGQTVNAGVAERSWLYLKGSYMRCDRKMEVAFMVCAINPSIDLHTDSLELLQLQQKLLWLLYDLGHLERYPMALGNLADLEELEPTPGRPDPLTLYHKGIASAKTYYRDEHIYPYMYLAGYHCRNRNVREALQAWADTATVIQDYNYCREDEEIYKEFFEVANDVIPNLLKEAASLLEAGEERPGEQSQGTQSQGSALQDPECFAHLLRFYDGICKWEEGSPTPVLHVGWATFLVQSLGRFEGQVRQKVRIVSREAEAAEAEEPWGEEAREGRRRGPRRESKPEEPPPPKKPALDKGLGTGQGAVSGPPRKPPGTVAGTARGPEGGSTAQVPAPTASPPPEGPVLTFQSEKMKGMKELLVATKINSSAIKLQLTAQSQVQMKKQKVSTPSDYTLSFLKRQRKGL
The IC50, see Table 3, and Ki values of representative Compounds of the Disclosure were determined in a competitive binding experiment. Mixtures of 5 μl of the tested compounds in DMSO and 195 μl of preincubated protein/probe complex solution in the assay buffer were added into assay plates which were incubated at room temperature for 30 minutes with gentle shaking. Final concentration of the menin protein was 4 nM, and final probe concentration is 2 nM. […] FP values were measured as described above. IC50 values were determined by nonlinear regression fitting of the competition curves.

As to `N#Cc1ccc(N2CC(C(=O)N3CCC(C4(C5CCCC5)NCCc5ccccc54)CC3)C2)cc1` (centres unmarked) [compound 128, 4-(3-(4-(1-cyclopentyl-1,2,3,4-tetrahydroisoquinolin-1-yl)piperidine-1-carbonyl)azetidin-1-yl)benzonitrile], the IC50 was 4.1 µM.
The same measure, in the same setting: the figure for `O=S(=O)(c1ccncc1)c1ccc(N2CC(CN3CCC(C4(C5CCCC5)CN(CC5CC5)Cc5ccccc54)CC3)C2)cc1` (centres unmarked) [compound 50, 4-cyclopentyl-2-(cyclopropylmethyl)-4-(1-((1-(4-(pyridin-4-ylsulfonyl)phenyl)azetidin-3-yl)methyl)piperidin-4-yl)-1,2,3,4-tetrahydroisoquinoline] is 0.007 µM.
Regarding `CC(=O)O[C@@H]1CCC[C@H]1C(C#N)(c1cccc(F)c1)C1CCN(CC2CN(c3ccc(C#N)cc3)C2)CC1` (mixture of isomers) [compound 416, rac-(1R,2S)-2-(cyano(1-((1-(4-cyanophenyl)azetidin-3-yl)methyl)piperidin-4-yl)(3-fluorophenyl)methyl) cyclopentyl acetate], the IC50 is 3.28 µM.
On the same count and under the same terms, the figure for `O=C(c1ccn(-c2ccc(S(=O)(=O)C3CC3)cc2)c1)N1CCC(C2(C3CCCC3)NCCc3ccccc32)CC1` (centres unmarked) [compound 122, (4-(1-cyclopentyl-1,2,3,4-tetrahydroisoquinolin-1-yl)piperidin-1-yl)(1-(4-(cyclopropylsulfonyl)phenyl)-1H-pyrrol-3-yl)methanone] is 57.5 µM; for `CNC(=O)O[C@H]1CCC[C@@H]1C(C#N)(c1ccccc1)C1CCN(CC2CN(c3ccc(C(C)(C)C)cc3)C2)CC1` (mixture of isomers) [compound 422, rac-(1S,2R)-2-((1-((1-(4-(tert-butyl)phenyl)azetidin-3-yl)methyl)piperidin-4-yl)(cyano)(phenyl)methyl) cyclopentyl methylcarbamate] it is 0.028 µM.
Same read-out and setting: next, `CO[C@H]1CCC[C@@H]1C(C#N)(c1ccccc1)C1CCN(CCCOc2ccc(C#N)cc2)CC1` (stereo partly drawn) [compound 174, 4-(3-(4-(cyano((1R,2S)-2-methoxycyclopentyl)(phenyl)methyl)piperidin-1-yl)propoxy)benzonitrile]: 24.6 µM; `N#Cc1ccc(OCCCN2CCC(C3(C4CCCC4)NCCc4sccc43)CC2)cc1` (centres unmarked) [compound 32, 4-(3-(4-(4-cyclopentyl-4,5,6,7-tetrahydrothieno[3,2-c]pyridin-4-yl)piperidin-1-yl)propoxy)benzonitrile]: 0.059 µM.
The same measure, in the same setting: next, `N#Cc1ccc(OCCCN2CCC(C3(C4CCCC4)C(=O)NCc4ccccc43)CC2)cc1` (centres unmarked) [compound 24, 4-(3-(4-(4-cyclopentyl-3-oxo-1,2,3,4-tetrahydroisoquinolin-4-yl)piperidin-1-yl)propoxy)benzonitrile]: 0.416 µM.
Take `N#Cc1ccc(OCCCNc2ccc(C(O)(c3ccccc3)C3CCCC3)cn2)cc1` (centres unmarked) [compound 125, 4-(3-((5-(cyclopentyl(hydroxy)(phenyl)methyl)pyridin-2-yl)amino)propoxy)benzonitrile]: the “Menin Binding Affinity IC50 (μM)” value was “No inhibition”.
As to `CN(C)S(=O)(=O)c1ccc(N2CC(CN3CCC(C4(C5CCCC5)NCCc5ccccc54)CC3)C2)cc1` (centres unmarked) [compound 88, 4-(3-((4-(1-cyclopentyl-1,2,3,4-tetrahydroisoquinolin-1-yl)piperidin-1-yl)methyl)azetidin-1-yl)-N,N-dimethylbenzenesulfonamide], the IC50 was determined as 0.075 µM.
For the compound `CNC(=O)O[C@@H]1CCC[C@H]1C(C#N)(c1ccccc1)C1CCN(CC2CN(c3ccc(S(=O)(=O)c4cnn(C)c4)cc3)C2)CC1` (mixture of isomers) [compound 241, rac-(1R,2S)-2-(cyano(1-((1-(4-((1-methyl-1H-pyrazol-4-yl)sulfonyl)phenyl)azetidin-3-yl)methyl)piperidin-4-yl)(phenyl)methyl)cyclopentyl methylcarbamate], the IC50 was determined as 0.849 µM.
As to `COC(=O)N[C@@H]1CCC[C@H]1C(C#N)(c1ccccc1)C1CCN(CC2CN(c3ccc(S(=O)(=O)c4ccccc4)cc3)C2)CC1` (mixture of isomers) [compound 348, methyl (rac-(1R,2S)-2-(cyano(phenyl)(1-((1-(4-(phenylsulfonyl)phenyl)azetidin-3-yl)methyl)piperidin-4-yl)methyl)cyclopentyl) carbamate], the IC50 is 0.819 µM.
On to `CS(=O)(=O)c1ccc(N2CC(CN3CCC(C(C#N)(c4ccccc4)C4CCC(=O)C4)CC3)C2)cc1` (centres unmarked) [compound 169, 2-(1-((1-(4-(methylsulfonyl)phenyl)azetidin-3-yl)methyl)piperidin-4-yl)-2-(3-oxocyclopentyl)-2-phenylacetonitrile], for which the IC50 is 49.9 µM.
For `CS(=O)(=O)c1ccc(N2CC(CN3CCC(C(C#N)(c4ccccc4)[C@@H]4CCC[C@H]4O)CC3)C2)cc1` (mixture of isomers) [compound 179, rac-2-((1S,2R)-2-hydroxycyclopentyl)-2-(1-((1-(4-(methylsulfonyl)phenyl)azetidin-3-yl)methyl)piperidin-4-yl)-2-phenylacetonitrile], the IC50 stood at 3.8 µM.
In the case of `CNC(=O)O[C@@H]1CCC[C@H]1C(C#N)(c1ccccc1)C1CCN(CC2CN(c3ccc([N+](=O)[O-])cc3)C2)CC1` (mixture of isomers) [compound 384, rac-(1R,2S)-2-(cyano(1-((1-(4-nitrophenyl)azetidin-3-yl)methyl)piperidin-4-yl)(phenyl)methyl)cyclopentyl methylcarbamate], the IC50 was found to be 4.6 µM.
Consider `CC(=O)O[C@@H]1CCC[C@H]1C(C#N)(c1ccccc1)C1CCN(CC2CN(c3ccc(S(=O)(=O)C4CC4)cc3)C2)CC1` (mixture of isomers) [compound 188, rac-((1R,2S)-2-(cyano(1-((1-(4-(cyclopropylsulfonyl)phenyl)azetidin-3-yl)methyl)piperidin-4-yl)(phenyl)methyl)cyclopentyl acetate], for which the IC50 worked out at 1.7 µM.
The same measure, in the same setting: the figure for `CSC[C@@H]1CCC[C@H]1C(C#N)(c1ccccc1)C1CCN(CC2CN(c3ccc(S(=O)(=O)c4ccncc4)cc3)C2)CC1` (mixture of isomers) [compound 260, rac-2-((1R,2R)-2-((methylthio)methyl)cyclopentyl)-2-phenyl-2-(1-((1-(4-(pyridin-4-ylsulfonyl)phenyl)azetidin-3-yl)methyl)piperidin-4-yl)acetonitrile] is 17 µM; for `N#Cc1ccc(N2CC(CN3CCC(C4(C5CCCC5)NCCc5ccccc54)CC3)C2)nc1` (centres unmarked) [compound 110, 6-(3-((4-(1-cyclopentyl-1,2,3,4-tetrahydroisoquinolin-1-yl)piperidin-1-yl)methyl)azetidin-1-yl)nicotinonitrile] it is 575 µM; for `O=C(Cc1ccc(S(=O)(=O)C2CC2)cc1)N1CCc2cc(C3(C4CCCC4)NCCc4ccccc43)ccc2C1` (centres unmarked) [compound 100, 1-(1-cyclopentyl-1,2,3,3′,4,4′-hexahydro-[1,6′-biisoquinolin]-2′-(1′H)-yl)-2-(4-(cyclopropylsulfonyl)phenyl) ethan-1-one] it is 4.7 µM.
On the same count and under the same terms, the figure for `O=S(=O)(c1ccc(N2CC(CN3CCC(C4(C5CCCC5)COCc5ccccc54)CC3)C2)cc1)C1CC1` (centres unmarked) [compound 38, 4-(4-cyclopentylisochroman-4-yl)-1-((1-(4-(cyclopropylsulfonyl)phenyl)azetidin-3-yl)methyl)piperidine] is 0.304 µM; for `CN(C)C(=O)N[C@@H]1CCC[C@H]1C(C#N)(c1ccccc1)C1CCN(CC2CN(c3ccc(S(=O)(=O)c4ccncc4)cc3)C2)CC1` (mixture of isomers) [compound 276, rac-3-((1R,2S)-2-(cyano(phenyl)(1-((1-(4-(pyridin-4-ylsulfonyl)phenyl)azetidin-3-yl)methyl)piperidin-4-yl)methyl)cyclopentyl)-1,1-dimethylurea] it is 1.2 µM; for `CC(=O)N1CCC[C@@H]1C(C#N)(c1ccccc1)C1CCN(CCCOc2ccc(C#N)cc2)CC1` (stereo partly drawn) [compound 331, 4-(3-(4-(((R)-1-acetylpyrrolidin-2-yl)(cyano)(phenyl)methyl)piperidin-1-yl)propoxy)benzonitrile] it is 23.3 µM.
`CC(=O)O[C@H]1CCC[C@@H]1C(C#N)(c1ccccc1)C1CCN(CC#Cc2ccc(C#N)cc2)CC1` (mixture of isomers) [compound 386, rac-(1S,2R)-2-(cyano(1-(3-(4-cyanophenyl)prop-2-yn-1-yl)piperidin-4-yl)(phenyl)methyl)cyclopentyl acetate]: the “Menin Binding Affinity IC50 (μM)” value is reported as “No inhibition”.
Take `C=CCC1(C2CCN(CCCOc3ccc(C#N)cc3)CC2)NCCc2ccccc21` (centres unmarked) [compound 293, 4-(3-(4-(1-allyl-1,2,3,4-tetrahydroisoquinolin-1-yl)piperidin-1-yl)propoxy)benzonitrile]: the IC50 is 2.8 µM.
As to `N#CC(Cc1ccncc1)(c1ccccc1)C1CCN(CC2CN(c3ccc(S(=O)(=O)c4ccncc4)cc3)C2)CC1` (centres unmarked) [compound 343, 2-phenyl-3-(pyridin-4-yl)-2-(1-((1-(4-(pyridin-4-ylsulfonyl)phenyl)azetidin-3-yl)methyl)piperidin-4-yl)propanenitrile], the IC50 is 8.8 µM.
On to `CNC(=O)O[C@@H]1CCC[C@H]1C(C#N)(c1ccccc1)C1CCN(CC2CN(c3ccc(C(C)(C)C)cc3)C2)CC1` (mixture of isomers) [compound 423, rac-(1R,2S)-2-((1-((1-(4-(tert-butyl)phenyl)azetidin-3-yl)methyl)piperidin-4-yl)(cyano)(phenyl)methyl) cyclopentyl methylcarbamate], for which the IC50 was found to be 0.776 µM.
